According to patent publication US20240034729A9, “HETEROCYCLIC COMPOUND, INTERMEDIATE, PREPARATION METHOD THEREFOR AND APPLICATION THEREOF” (WUHAN LL SCIENCE AND TECHNOLOGY DEVELOPMENT CO., LTD., priority 2018, published 2024):

The compounds below were run against hP2X3 (human purinergic P2X receptor subtype 3) (Homo sapiens (Human), UniProt P56373) (assay: FLIPR calcium assay, hP2X3 expressed in HEK293 cells). Details: HEK293 cells expressing hP2X3, agonist BZ-ATP 2.5 μM; class symbols; read-out: P2X3 IC50.
Type: cell-based

Sequence of hP2X3 (human purinergic P2X receptor subtype 3) (P56373 whole entry): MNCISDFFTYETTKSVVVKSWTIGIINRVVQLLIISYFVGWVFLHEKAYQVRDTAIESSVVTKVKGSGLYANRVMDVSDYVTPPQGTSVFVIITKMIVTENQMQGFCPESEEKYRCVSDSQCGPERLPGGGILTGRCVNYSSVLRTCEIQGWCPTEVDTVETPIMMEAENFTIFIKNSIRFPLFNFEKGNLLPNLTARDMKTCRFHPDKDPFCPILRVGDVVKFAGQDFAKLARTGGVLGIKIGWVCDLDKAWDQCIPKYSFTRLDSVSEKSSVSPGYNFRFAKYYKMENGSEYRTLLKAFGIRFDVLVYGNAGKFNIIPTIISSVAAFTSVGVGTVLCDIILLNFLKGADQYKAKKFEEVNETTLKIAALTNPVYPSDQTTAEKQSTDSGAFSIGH

Row | SMILES | IC50
1 | CNC(=O)c1coc(-c2nc3cc(C)ccn3c2C[C@H]2CN(C(=O)OC)CCO2)c1F [Compound 22] | 200 to 5000 nM
2 | COC(=O)N1CCO[C@@H](Cc2c(-c3c(F)cc(C(C)=O)cc3F)nc3cc(C)ccn23)C1 [Compound 14, methyl (S)-2-((2-(4-acetyl-2,6-difluorophenyl)-7-methylimidazo[1,2-a]pyridin-3-yl)methyl)morpholine-4-carboxylate] | 200 to 5000 nM
3 | COC(=O)N1CCO[C@@H](Cc2c(-c3c(F)cc(-n4cnc(C(=O)O)c4)cc3F)nc3cc(C)ccn23)C1 [Compound 107, (S)-1-(3,5-difluoro-4-(3-((4-(carbomethoxy<methoxycarbonyl>)morpholin-2-yl)methyl)-7-methylimidazo[1,2-a]pyridin-2-yl)phenyl)-1H-imidazole-4-carboxylic acid] | 10 to 50 nM
4 | CNC(=O)c1c[nH]c(-c2nc3cc(C)ccn3c2C[C@H]2CN(C(=O)OC)CCO2)c1F [Compound 24] | 200 to 5000 nM
5 | COC(=O)c1cn(-c2cc(F)c(-c3nc4cc(C)ccn4c3C[C@H]3CN(C(=O)OC)CCO3)c(F)c2)cn1 [Compound 108] | 200 to 5000 nM
6 | COC(=O)N1CCO[C@@H](Cc2c(-c3c(F)cc(-c4ncco4)cc3F)nc3cc(F)ccn23)C1 [Compound 122] | 200 to 5000 nM
7 | CNC(=O)c1csc(-c2nc3cc(C)ccn3c2C[C@H]2CN(C(=O)OC)CCO2)c1F [Compound 23] | 200 to 5000 nM
8 | COC(=O)N1CCO[C@@H](Cc2c(-c3c(F)cc(-n4cnc(C5(C(=O)O)CC5)c4)cc3F)nc3cc(C)ccn23)C1 [Compound 113] | 200 to 5000 nM
9 | COC(=O)N1CCO[C@@H](Cc2c(-c3c(F)cc(-n4cnc(OC)c4)cc3F)nc3cc(C)ccn23)C1 [Compound 112] | 200 to 5000 nM
10 | COC(=O)N1CCO[C@@H](Cc2c(-c3c(F)cc(-c4nccn4C)cc3F)nc3cc(C)ccn23)C1 [Compound 9, methyl (S)-2-((2-(2,6-difluoro-4-(1-methyl-1H-imidazol-2-yl)phenyl)-7-methylimidazo[1,2-a]pyridin-3-yl)methyl)morpholine-4-carboxylate] | 200 to 5000 nM
11 | COC(=O)N1CCO[C@@H](Cc2c(-c3c(F)cc(-n4cc(O)cn4)cc3F)nc3cc(C)ccn23)C1 [Compound 128, methyl (S)-2-((2-(2,6-difluoro-4-(4-hydroxy-1H-pyrazol-1-yl)phenyl)-7-methylimidazo[1,2-a]pyridin-3-yl)methyl)morpholine-4-carboxylate] | 200 to 5000 nM
12 | CCOC(=O)N1CCO[C@@H](Cc2c(C(=O)Nc3cc(F)cc(F)c3)nc3cc(C)ccn23)C1 [Compound 20] | 200 to 5000 nM

Same assay, conditions: read-out: P2X3 IC50

Row | SMILES | IC50
13 | COC(=O)N1CCO[C@@H](Cc2c(-c3c(F)cc(NC(=O)CC(C)C(N)=O)cc3F)nc3cc(C)ccn23)C1 (stereo partly shown) [Compound 170] | 50 to 200 nM
14 | COC(=O)N1CCO[C@@H](Cc2c(-c3c(F)cc(-c4ncc(C#N)o4)cc3F)nc3cc(C)ccn23)C1 [Compound 120] | < 10 nM
15 | COC(=O)N1CCO[C@@H](Cc2c(-c3c(F)cc(-n4ccoc4=O)cc3F)nc3cc(C)ccn23)C1 [Compound 99] | 10 to 50 nM
16 | COC(=O)N1CCO[C@@H](Cc2c(-c3c(F)cc(NCCCC(N)=O)cc3F)nc3cc(C)ccn23)C1 [Compound 77] | < 10 nM
17 | COC(=O)N1CCO[C@@H](Cc2c(-c3c(F)cc(-n4cnc(C(C)(C)O)c4)cc3F)nc3cc(C)ccn23)C1 [Compound 117, methyl (S)-2-((2-(2,6-difluoro-4-(4-(2-hydroxypropan-2-yl)-1H-imidazol-1-yl)phenyl)-7-methylimidazo[1,2-a]pyridin-3-yl)methyl)morpholine-4-carboxylate] | 10 to 50 nM
18 | COC(=O)N1CCO[C@@H](Cc2c(-c3c(F)cc(NC(C)=O)cc3F)nc3cc(F)ccn23)C1 [Compound 148] | < 10 nM
19 | COC(=O)N1CCO[C@@H](Cc2c(-c3c(F)cc(NC(=O)C4CCC(=O)CC4)cc3F)nc3cc(C)ccn23)C1 [Compound 83] | 50 to 200 nM
20 | COC(=O)N1CCO[C@@H](Cc2c(-c3c(F)cc(-n4ccc(S(N)(=O)=O)c4)cc3F)nc3cc(C)ccn23)C1 [Compound 134, methyl (S) 2-((2-(2,6-difluoro-4-(3-sulfamoyl-1H-pyrrol-1-yl)phenyl)-7-methylimidazo[1,2-a]pyridin-3-yl)methyl)morpholine-4-carboxylate] | 10 to 50 nM
21 | COC(=O)N1CCO[C@@H](Cc2c(-c3c(F)cc(-n4cnnc4)cc3F)nc3cc(C)ccn23)C1 [Compound 143, methyl (S)-2-((2-(2,6-difluoro-4-(4H-1,2,4-triazol-4-yl)phenyl)-7-methylimidazo[1,2-a]pyridin-3-yl)methyl)morpholine-4-carboxylate] | < 10 nM
22 | CCC(=O)N1CCO[C@@H](Cc2c(-c3c(F)cc(NC(C)=O)cc3F)nc3cc(C(F)F)ccn23)C1 [Compound 157] | < 10 nM
23 | COC(=O)N1CCO[C@@H](Cc2c(-c3c(F)cc(NC(=O)c4ccncc4)cc3F)nc3cc(C)ccn23)C1 [Compound 86] | 10 to 50 nM
24 | COC(=O)N1CCO[C@@H](Cc2c(-c3c(F)cc(-n4cnc(N)c4)cc3F)nc3cc(C)ccn23)C1 [Compound 111] | 10 to 50 nM
25 | CNC(=O)C1(c2cc(F)c(-c3nc4cc(C)ccn4c3C[C@H]3CN(C(=O)OC)CCO3)c(F)c2)CC1 [Compound 66] | 50 to 200 nM
26 | COC(=O)N1CCO[C@@H](Cc2c(-c3cc(F)c(S(N)(=O)=O)cc3Cl)nc3cc(C)ccn23)C1 [Compound 180, methyl (S)-2-((2-(2-chloro-5-fluoro-4-sulfamoylphenyl)-7-methylimidazo[1,2-a]pyridin-3-yl)methyl)morpholine-4-carboxylate] | 0.2 nM
27 | COC(=O)N1CCO[C@@H](Cc2c(-c3c(F)cc(-c4cc[nH]n4)cc3F)nc3cc(F)ccn23)C1 [Compound 103] | 50 to 200 nM
28 | CNC(=O)c1ccnc(Cc2c(-c3c(F)cc(S(N)(=O)=O)cc3F)nc3cc(C)ccn23)c1 [Compound 185] | 13 nM
29 | COC(=O)N1CCO[C@@H](Cc2c(-c3c(F)cc(-n4ccc(C(C)(C)O)n4)cc3F)nc3cc(C)ccn23)C1 [Compound 126, methyl (S)-2-((2-(2,6-difluoro-4-(3-(2-hydroxypropan-2-yl)-1H-pyrazol-1-yl)phenyl)-7-methylimidazo[1,2-a]pyridin-3-yl)methyl)morpholine-4-carboxylate] | 10 to 50 nM

Row | SMILES | IC50
30 | COC(=O)N1CCO[C@@H](Cc2c(-c3c(F)cc(C4(N)COC4)cc3F)nc3cc(C)ccn23)C1 [Compound 70] | 10 to 50 nM
31 | COC(=O)N1CCO[C@@H](Cc2c(-c3c(F)cc(-n4ccnn4)cc3F)nc3cc(C)ccn23)C1 [Compound 141, methyl (S)-2-((2-(2,6-difluoro-4-(1H-1,2,3-triazol-1-yl)phenyl)-7-methylimidazo[1,2-a]pyridin-3-yl)methyl)morpholine-4-carboxylate] | 10 to 50 nM
32 | COC(=O)N1CCO[C@@H](Cc2c(-c3c(F)cc(NC(=O)CCC(C)(C)O)cc3F)nc3cc(C)ccn23)C1 [Compound 93] | 10 to 50 nM
33 | COC(=O)N1CCO[C@@H](Cc2c(-c3c(F)cc(NC(=O)CC(C)(C)C(=O)O)cc3F)nc3cc(C)ccn23)C1 [Compound 91] | < 10 nM
34 | COC(=O)N1CCO[C@@H](Cc2c(-c3c(F)cc(NC(=O)CC(C)C(=O)O)cc3F)nc3cc(C)ccn23)C1 (stereo partly shown) [Compound 92] | 10 to 50 nM
35 | COC(=O)N1CCO[C@@H](Cc2c(-c3c(F)cc(-n4ccc(C#N)c4)cc3F)nc3cc(C)ccn23)C1 [Compound 137] | 10 to 50 nM
36 | CNC(=O)c1cc(F)c(-c2nc3n(c2C[C@H]2CN(C(=O)OC)CCO2)CCC(C)C3)c(F)c1 (stereo partly drawn) [Compound 44, methyl (2S)-2-((2-(2,6-difluoro-4-(methylcarbamoyl)phenyl)-7-methyl-5,6,7,8-tetrahydroimidazo[1,2-a]pyridin-3-yl)methyl)morpholine-4-carboxylate] | < 10 nM
37 | COC(=O)N1CCO[C@@H](Cc2c(-c3c(F)cc(-c4nc(C5(O)CC5)c[nH]4)cc3F)nc3cc(C)ccn23)C1 [Compound 116] | 10 to 50 nM
38 | COC(=O)N1CCO[C@@H](Cc2c(-c3c(F)cc(-c4ccn(C(F)F)n4)cc3F)nc3cc(C)ccn23)C1 [Compound 102] | < 10 nM
39 | CCC(=O)N1CCO[C@@H](Cc2c(-c3c(F)cc(-c4ccc(C#N)s4)cc3F)nc3cc(C)ccn23)C1 [Compound 140, (S)-5-(3,5-difluoro-4-(7-methyl-3-((4-propionylmorpholin-2-yl)methyl)imidazo[1,2-a]pyridin-2-yl)phenyl)thiophene-2-carbonitrile] | 50 to 200 nM
40 | COC(=O)N1CCO[C@@H](Cc2c(-c3c(F)cc(-n4ccc(C(C)(C)O)c4)cc3F)nc3cc(C)ccn23)C1 [Compound 135] | < 10 nM
41 | CCOC(=O)c1cn(-c2cc(F)c(-c3nc4cc(C)ccn4c3C[C@H]3CN(C(=O)OC)CCO3)c(F)c2)cn1 [Compound 51, methyl (S)-2-((2-(4-(4-(carbethoxy<ethoxycarbonyl>)-1H-imidazol-1-yl)-2,6-difluorophenyl)-7-methylimidazo[1,2-a]pyridin-3-yl)methyl)morpholine-4-carboxylate] | 50 to 200 nM
42 | COC(=O)N1CCO[C@@H](Cc2c(-c3c(F)cc(-n4ccc(C#N)n4)cc3F)nc3cc(C)ccn23)C1 [Compound 124] | < 10 nM
43 | COC(=O)N1CCO[C@@H](Cc2c(C3CCN(C(C)=O)CC3)nc3cc(C)ccn23)C1 [Compound 30, methyl (S)-2-((2-(1-acetylpiperidin-4-yl)-7-methylimidazo[1,2-a]pyridin-3-yl)methyl)morpholine-4-carboxylate] | 10 to 50 nM
44 | COC(=O)N1CCO[C@@H](Cc2c(-c3c(F)cc(-c4nc(C#N)c[nH]4)cc3F)nc3cc(F)ccn23)C1 [Compound 106] | 10 to 50 nM
45 | COC(=O)N1CCO[C@@H](Cc2c(-c3c(F)cc(-n4cc[nH]c4=O)cc3F)nc3cc(C)ccn23)C1 [Compound 98] | 10 to 50 nM
46 | COC(=O)N1CCO[C@@H](Cc2c(-c3c(F)cc(-n4cc(OC)cn4)cc3F)nc3cc(C)ccn23)C1 [Compound 129, methyl (S)-2-((2-(2,6-difluoro-4-(4-methoxy-1H-pyrazol-1-yl)phenyl)-7-methylimidazo[1,2-a]pyridin-3-yl)methyl)morpholine-4-carboxylate] | 10 to 50 nM
